Source: patent publication US20250304623A1, “PEPTIDES FOR INTRACELLULAR DELIVERY” (UNIVERSIDADE DE SANTIAGO DE COMPOSTELA, priority 2022, published 2025)
*: point of attachment. NHNH2 = NN*

Experiments:
Format in all cases: cell-based
[1] = system: ARPE19 cells expressing EGFP; test: Cas9-RNP delivery against EGFP (gene editing, plate reader), ARPE19
Procedure, shortened: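 EGFP-expressing cells, generated by stable transfection with EGFP pDNA and G-418 selection, were plated in 96-well plates at 50,000 cell/mL (100 μL/w) in DMEM+10% FBS+1% Gln-Abt. Cas9-RNP targeting EGFP was complexed with amphiphile for 30 min, applied for 4 h at 50 nM RNP, and EGFP fluorescence was read on a plate reader after 72 h.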

[2] = system: A549 cells expressing EGFP; test: Cas9-RNP delivery against EGFP (gene editing, plate reader), A549; conditions: A549 cells
Procedure, shortened: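 A549 cells stably expressing EGFP were seeded in 96-well plates at 50,000 cell/mL (100 μL/w) the day before. A Cas9 ribonucleoprotein targeting the EGFP gene was complexed with amphiphile for 30 min at room temperature, then applied for 4 h at 50 nM Cas9-RNP. EGFP fluorescence was read on a plate reader after 72 h, in triplicate.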

[3] = system: HepG2 cells expressing EGFP; test: Cas9-RNP delivery against EGFP (gene editing, plate reader), HepG2
Procedure, shortened: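 Gene editing in EGFP-expressing HepG2 cells was estimated as the percentage drop in GFP fluorescence, measured in triplicate on a plate reader 72 h after Cas9-RNP delivery with amphiphiles. The RNP was made from annealed crRNA/tracrRNA plus 4 μM Cas9 and complexed with amphiphile before a 4 h exposure. Background from untreated control cells was subtracted.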

Ac-RRLK*RLLRRLK*RLK*RRL-NH2 (Ac-RRLK(NHNH2)RLLRRLK(NHNH2)RLK(NHNH2)RRL-NH2; not fully specified; printed as Ac-RRLK*RLLRRLK*RLK*RRL-NH2; also: K*4,K*11,K*14: native or modified lysine (ε-amide to a linker)) [Peptide 17.3]
percentage of gene editing, GFP fluorescence intensity decrease (% of reduction) ([1]; Myristoleyl, 10 μM): 44% | percentage of gene editing, GFP fluorescence intensity decrease (% of reduction) ([1]; Oleyl, 10 μM): 45% | percentage of gene editing, GFP fluorescence intensity decrease (% of reduction) ([1]; Oleyl, 15 μM): −9% | percentage of gene editing, GFP fluorescence intensity decrease (% of reduction) ([1]; Palmitoleyl, 5 μM): 12% | percentage of gene editing, GFP fluorescence intensity decrease (% of reduction) ([1]; Palmitoleyl, 10 μM): 60% | percentage of gene editing, GFP fluorescence intensity decrease (% of reduction) ([1]; Palmitoleyl, 15 μM): 31% | percentage of gene editing, GFP fluorescence intensity decrease (% of reduction) ([1]; Petroselinyl, 10 μM): 26% | percentage of gene editing, GFP fluorescence intensity decrease (% of reduction) ([1]; Petroselinyl, 15 μM): 27% | percentage of gene editing, GFP fluorescence intensity decrease (% of reduction) ([2]; Dodecanal, 10 μM): 75% | percentage of gene editing, GFP fluorescence intensity decrease (% of reduction) ([2]; Dodecanal, 15 μM): 34% | percentage of gene editing, GFP fluorescence intensity decrease (% of reduction) ([2]; Myristoleyl, 5 μM): 17% | percentage of gene editing, GFP fluorescence intensity decrease (% of reduction) ([2]; Oleyl, 10 μM): 72% | percentage of gene editing, GFP fluorescence intensity decrease (% of reduction) ([2]; Oleyl, 15 μM): 34% | percentage of gene editing, GFP fluorescence intensity decrease (% of reduction) ([2]; Palmitoleyl, 5 μM): 17% | percentage of gene editing, GFP fluorescence intensity decrease (% of reduction) ([2]; Palmitoleyl, 10 μM): 60% | percentage of gene editing, GFP fluorescence intensity decrease (% of reduction) ([2]; Palmitoleyl, 15 μM): 72% | percentage of gene editing, GFP fluorescence intensity decrease (% of reduction) ([2]; Petroselinyl, 5 μM): 23% | percentage of gene editing, GFP fluorescence intensity decrease (% of reduction) ([2]; Petroselinyl, 15 μM): 66% | percentage of gene editing, GFP fluorescence intensity decrease (% of reduction) ([3]; Myristoleyl, 5 μM): 6% | percentage of gene editing, GFP fluorescence intensity decrease (% of reduction) ([3]; Myristoleyl, 10 μM): 38% | percentage of gene editing, GFP fluorescence intensity decrease (% of reduction) ([3]; Palmitoleyl, 5 μM): −2% | percentage of gene editing, GFP fluorescence intensity decrease (% of reduction) ([3]; Palmitoleyl, 10 μM): 31% | percentage of gene editing, GFP fluorescence intensity decrease (% of reduction) ([3]; Palmitoleyl, 15 μM): 31% | percentage of gene editing, GFP fluorescence intensity decrease (% of reduction) ([3]; Petroselinyl, 5 μM): −2% | percentage of gene editing, GFP fluorescence intensity decrease (% of reduction) ([3]; Petroselinyl, 10 μM): 39% | percentage of gene editing, GFP fluorescence intensity decrease (% of reduction) ([3]; Petroselinyl, 15 μM): 35%
